Experimental data as given in US8969515B2, “Pharmaceutical composition for treating hyperproliferative diseases” (OOO “MetaMax”, priority 2011, dated 2015).

Assays:
[1] = test system: cell lines HEK293 and A549; assay: Cell cycle arrest by chemotherapeutics alone, preliminary experiments; format: cell-based, human; conditions: 100 nMol
Excerpt: This concentration for all drugs was 100 nMol.

A549 cells xenograft = assay: Anti-tumor activity in vivo, local injection, A549 xenograft; conditions: 24 days
Excerpt: 10 mice constituted the 1st treatment group. […] The experiment lasted 24 days.
In the experimental groups, we observed a reduced tumor growth and on day 6 after the begin of administration of the peptide there could be observed a significant reduction in tumor volume in experimental groups compared with the control ones (FIG. 32). The experiment lasted 24 days. During this time, we performed 10 injections of the chimeric peptide in the experimental groups. In the control group, on day 24 of the experiment, the average tumor volume in mice was 95.24 mm^3, one mouse died. In the first experimental group (administered dose of peptide—0.1 mg) average tumor volume was 39.29 mm^3, one mouse died.

HCT-116 cells xenograft = assay: Anti-tumor activity in vivo, local injection, HCT-116 xenograft; parameters: species or system mice; conditions: 0.1 mg group, 28 days
Excerpt: The tumor nodule of HCT-116 cells is characterized by a large in size and the presence of ulceration. In the control group, on day 28 of the experiment the average tumor volume reached 679 mm^3, 3 mice died during the experiment. In the test group, a lower rate of tumor growth was observed (FIG. 32), on day 28 of the experiment the average tumor volume was 225.4 mm^3, the number of dead animals in the experimental group was 2.

cyclin B = assay: Cyclin B mRNA expression by quantitative RT-PCR; format: cell-based, human
Procedure: FIG. 29. Study of cyclin B synthesis in HEK293 cell culture by adding peptide Tat_p16 (30 µMol). […] X-axis—incubation time (hours), Y-axis—abstract units.
It is known that the phosphorylation of pRb is an initiating step for activation of expression of cyclins A and B and for transition of cells from G1 into S phase of the cell cycle. Quantitative PCR method was used to study mRNA expression level of cyclin B when exposed to Tat_p16 peptide. For this purpose during experiment on synchronized culture with adding Tat_p16 chimeric peptide at a concentration of 40 µmol, we performed a parallel selection of cells from samples for RNA extraction, whereas a part of the cells served the determination of the cell cycle phases. Further processing of the material involved RNA isolation and quantitative PCR reaction setting (RT-PCR) carried out according to the protocol.

[2] = test system: HEK293 cell line synchronized in G0/G1 phase; assay: Cell cycle phase analysis by flow cytofluorometry after sync block removal; format: cell-based, human; conditions: for antiproliferative effect on cell cycle: peptide added at sync block removal
Procedure: (§1) In experiments with cell lines we evaluated the distribution of cells according to the phases of the cell cycle and calculated the proliferation index. For analysis we used software FloMax 2.0 (built-in option of flow cytofluorimenter) and software Modfit LT 3.0 (FIGS. 7 and 8). We also carried out the determination of the proportion of cells entered the apoptosis based on size of “pre-G1-hypodiploid” peak on DNA histogram (FIG. 8 (B)). Experiments were performed both on cell lines synchronized in phase G1/S, and on non-synchronized cell lines Raji, Jurkatt, A549, HEK 293, MCF-7.
The study of the effects of peptides was conducted on transplantable cell cultures. In order to study alterations in the expression of specific intracellular regulators and in order to improve visualization of the experiments, the cells were pre-synchronized.
At the first stage of the evaluation of the obtained results, we investigated the effect of internalizable chimeric peptides with different active centers—p16INK4a and p21/CIP/KIP. The chimeric peptide to be studied was added at the moment of the sync block removal. Cell cycle analysis was performed every 2 hours for 24 hours after removal of the block.
We investigated chimeric peptides having p16INK4a active center and having different types of vectors, Tat and pAntp. […] As is seen from FIG. 18, plots of dependencies of the number of cells in the cell cycle phases are similar in appearance for the two types of peptide vectors carrying p16 fragment. In the control sample—synchronized cell culture without the addition of the study peptide, the number of cells in G0/G1-phase starts to decline as early as 2 hours after removal of the synch block, and 10 hours later we recorded the lowest number of cells in G0/G1-phase. S-phase in the control samples starts to increase 4-6 hours after sync block removal and reaches a maximum after 12 hours.

HEK293 cell line = assay: Apoptosis level (hypodiploid peak) in HEK293 culture; format: cell-based, human; conditions: synchronized culture
Procedure: FIG. 16. Mean apoptosis values for synchronized HEK293 cell culture in a series of experiments using internalized peptides with active centers p21 and p16. Incubation time with peptide is 24 hours. Concentration of peptides is 40 µMol. Y-axis—percentage of apoptotic particles.
FIG. 20. Mean apoptosis values in synchronized culture of HEK293 after addition of chimeric peptides Tat_p16 and pAntp p16. […] The peptides were added at the moment of synchronization block removal. The effect was evaluated after 24 hours.
FIG. 21. Change in the level of apoptosis in the cell culture depending on the incubation time with peptides Tat_p16 and pAntp_p16 for synchronized 293 cell line (A) and synchronized A549 cell line (B).
as §1

[3] = test system: HEK293 cell line, non-synchronized and synchronized; assay: Effect of pAntp chimeric peptide versions on cell cycle, HEK293; format: cell-based, human; conditions: 40 μM; for changes of the cell cycle phases: synchronized and nonsynchronized cells
Procedure: FIG. 22. Effect of chimeric peptide pAntp containing a p16INK4a fragment, on the cell cycle. A—non-synchronized cell line HEK293, B—cell line HEK293 synchronized in S-phase. Peptide concentration is 40 µM. The peptides are pAntp and three further peptides 1-p16, 2-p16, and 3-p16, wherein peptides 1-p16 and 2-p16 are synthetic peptides differing by the location of the 20 amino acids fragment of p16 relative to pAntp; and peptide 3-p16 is a genetically engineered peptide comprising a 50 amino acids insert of protein Antp.
We used three versions of the chimeric peptide containing p16INK4a active center and pAntp vector. These chimeric peptides differ by location of the active center relative to N-C termini of the molecule and the presence of an insertion of 44 amino acids ([…], SEQ ID NO: 9) for peptide 3 produced by genetic engineering method (Table 1).
In the study of the properties of these peptides we also investigated synchronized and nonsynchronized cell cultures. In a synchronized culture, the peptide was added at the time of sync block removal and in the nonsynchronized at a monolayer density (for adhesion cultures) of ~50%.

[4] = test system: cell lines A549, HEK293 and MCF-7; assay: Apoptosis level with pAntp chimeric peptide versions; format: cell-based, human; conditions: 40 μM, lines A549 and HEK 293, non-synchronized and synchronized
Procedure: FIG. 24. Effect of chimeric peptides containing a p16INK4a fragment on apoptosis level in non-synchronized and synchronized cell line A549. Peptide concentration is 40 µM. Y-axis—percentage of apoptotic bodies.
FIG. 25. Effect of chimeric peptides containing a p16INK4a fragment on apoptosis level in non-synchronized and synchronized HEK293 cell line. Peptide concentration is 40 µM. Y-axis—percentage of apoptotic bodies.
FIG. 26. Comparisons of cytotoxic effect of chimeric peptides pAntpp16 (1, 2) on HEK293 cell culture.
In the next phase of work, we assessed the dependence of the cytotoxic effect exerted by the chimeric test peptides with the peptide vector pAntp. An experiment to determine the level of apoptosis was carried out on the cell lines A549 (human, lung carcinoma), HEK293 (human, embryonic kidney) and MCF-7 (human, mammary adenocarcinoma). Cells were cultured by standard techniques in DMEM medium containing 10% of FSB. A part of the cells was previously synchronized using the method of double thymidine block and synchronization method with the depleted media (see “Experiment. Parts”). The chimeric test peptides pAntp-p16 (1 and 2) were added to the culture medium. As a negative control we used cells treated with the peptide pAntp_zam (FIGS. 24, 25).

[5] = after sync block removal, 40 μM

O=c1[nH]cc(F)c(=O)[nH]1 [5-fluorouracil]
cell cycle arrest phase [1]: G0/G1-phase arrest

COc1cc([C@@H]2c3cc4c(cc3[C@@H](O[C@@H]3O[C@@H]5CO[C@@H](C)O[C@H]5[C@H](O)[C@H]3O)[C@H]3COC(=O)[C@H]23)OCO4)cc(OC)c1O [Etoposide]
cell cycle arrest phase [1]: S-phase arrest

CC(=O)O[C@H]1C(=O)[C@@]2(C)[C@H]([C@H](OC(=O)c3ccccc3)[C@]3(O)C[C@H](OC(=O)[C@H](O)[C@@H](NC(=O)c4ccccc4)c4ccccc4)C(C)=C1C3(C)C)[C@]1(OC(C)=O)CO[C@@H]1C[C@@H]2O [Taxol]
cell cycle arrest phase [1]: G2/M-phase arrest

CC[C@H](C)[C@H](NC(=O)[C@H](CCCCN)NC(=O)[C@@H](NC(=O)[C@H](CCC(N)=O)NC(=O)[C@H](CCCNC(=N)N)NC(=O)[C@H](CO)NC(=O)[C@H](CCCNC(=N)N)NC(=O)[C@H](C)NC(=O)CNC(=O)[C@H](C)NC(=O)[C@H](CCCNC(=N)N)NC(=O)[C@H](Cc1c[nH]cn1)NC(=O)[C@H](CC(C)C)NC(=O)[C@@H](NC(=O)[C@@H](NC(=O)[C@H](CC(C)C)NC(=O)[C@@H](NC(=O)[C@H](CC(=O)O)NC(=O)[C@H](CC(C)C)NC(=O)[C@H](Cc1ccccc1)NC(=O)CNC(=O)[C@H](CCC(=O)O)NC(=O)[C@H](CCCNC(=N)N)NC(=O)[C@H](C)NC(=O)[C@H](C)NC(=O)[C@@H](N)CC(=O)O)[C@@H](C)O)C(C)C)C(C)C)[C@@H](C)CC)C(=O)N[C@@H](Cc1c[nH]c2ccccc12)C(=O)N[C@@H](Cc1ccccc1)C(=O)N[C@@H](CCC(N)=O)C(=O)N[C@@H](CC(N)=O)C(=O)N[C@@H](CCCNC(=N)N)C(=O)N[C@@H](CCCNC(=N)N)C(=O)N[C@@H](CCSC)C(=O)N[C@@H](CCCCN)C(=O)N[C@@H](Cc1c[nH]c2ccccc12)C(=O)N[C@@H](CCCCN)C(=O)N[C@@H](CCCCN)C(=O)O [pAntp_p16(2)]
mice died (A549 cells xenograft; 0.1 mg group): one | mice died (A549 cells xenograft; 0.2 mg group): no animals died | number of dead animals (HCT-116 cells xenograft): 2

DAAREGFLDTLVVLHRAGARS YGRKKRRQRRRG (DAAREGFLDTLVVLHRAGARSYGRKKRRQRRRG; Tat_p16, chimeric peptide; listed as Homo Sapiens)
effect on expression of cyclin B (cyclin B; HEK293 synchronized in G0/G1, Tat_p16 40 μmol): inhibits the expression of B cyclin | incubation time after which cyclin B expression level increases (cyclin B; control maximum at 12 hours): 16 h | time at which G0/G1 phase starts to decrease [2, 5]: simultaneously with G0/G1-phase in control sample | time at which S-phase begins to increase [2, 5]: 12 h | time of maximum S-phase [2, 5]: 14 h | time of maximum difference of cell cycle phases between control and test samples [2, 5]: about 12 hours | time of maximum difference of cell cycle phases between control and test samples ([2]; after sync block removal, 40 μM, listed as Tatp16): 12 h | antiproliferative effect on cell cycle ([2]; 40 μM): arrest of G1-S transition | time at which increase in G2-phase occurs ([2]; same experiment as cyclin B RT-PCR): 16 h

YGRKKRRQRRRGPVKRRLDL [Tat_p21]
dependence of the level of apoptosis on the incubation time (HEK293 cell line): has not been observed | mean apoptosis values versus control samples (HEK293 cell line; 24 hours, 40 μMol): no significant differences | time of maximum difference of cell cycle phases between control and test samples [2, 5]: 10 to 12 h | time at which G2/M-phase level reaches a maximum value ([2]; average): 18 to 20 h | antiproliferative effect on cell cycle ([2]; 40 μM): arrest of transition of cells from S-phase in G2/M-phase | level of S-phase remaining over 14 hours of incubation ([2]; test sample, over 14 hours): 65-70%

pAntp_p16(1): chimeric peptide, p16INK4a fragment at C-terminus, pAntp at N-terminus (SEQ ID NO: 10), solid phase synthesis (RQIKIWFQNRRMKWKKDAAREGFLDTLVVLHRAGAR; pAntp_p16(1), chimeric peptide; listed as Homo Sapiens)
changes of the cell cycle phases [3]: fails to induce the expected cytostatic effect | anti-proliferative effect on cells ([3]; summary of HEK293 and A549 experiments): does not have an anti-proliferative effect | effect on the level of apoptosis [4]: markedly increases

pAntp_zam: control peptide with p16INK4a sequence (amino acids 82-102) with substitution of tyrosine by alanine at position 92 (RQIKIWFQNRRMKWKKDAAREGFLDALVVLHRAGAR; pAntp_zam, chimeric peptide; listed as Homo Sapiens) [reference compound]
changes of the cell cycle phases [3]: do not differ from the control | effect on the level of apoptosis [4]: not affected
